Source: PubChem BioAssay AID1259407 (Chemical Carcinogenesis Research Information System (CCRIS), 2018)
The source made the active and inactive calls. How the calls were made is not given here.

Tested on: CCRIS mutagenicity, Ames/micronucleus/aberration tests
Test: CCRIS mutagenicity studies
[1] = Test System: AMES SALMONELLA TYPHIMURIUM, Strain/Indicator: TA98, Metabolic Activation: NONE, Method: PREINCUBATION
[2] = Test System: AMES SALMONELLA TYPHIMURIUM, Strain/Indicator: TA100, Metabolic Activation: NONE, Method: PREINCUBATION
[3] = Test System: AMES SALMONELLA TYPHIMURIUM, Strain/Indicator: TA98, Metabolic Activation: NONE, Method: STANDARD PLATE
[4] = Test System: AMES SALMONELLA TYPHIMURIUM, Strain/Indicator: TA100, Metabolic Activation: NONE, Method: STANDARD PLATE

CN1CCOCC1
mutagenic call [1]: inactive; negative | mutagenic call (Test System: AMES SALMONELLA TYPHIMURIUM, Strain/Indicator: TA98, Metabolic Activation: RAT, LIVER, S-9, PCB, Method: PREINCUBATION): inactive; negative | mutagenic call [2]: inactive; negative | mutagenic call (Test System: AMES SALMONELLA TYPHIMURIUM, Strain/Indicator: TA100, Metabolic Activation: RAT, LIVER, S-9, PCB, Method: PREINCUBATION): inactive; negative

Nc1nc2c(ncn2COCCO)c(=O)[nH]1
mutagenic call (End Point: IN VITRO CHROMOSOMAL ABERRATIONS, Test System: CHO CELLS (CHO-HSVTK), Metabolic Activation: NONE): active; positive (structural changes); concentration chosen also induced apoptosis

C=C(C)c1ccc(C)c2ccc(CO)c-2c1
mutagenic call [3]: inactive; negative | mutagenic call (Test System: AMES SALMONELLA TYPHIMURIUM, Strain/Indicator: TA98, Metabolic Activation: RAT, LIVER, S-9, AROCLOR 1254, Method: STANDARD PLATE): active; positive | mutagenic call [4]: inactive; negative | mutagenic call (Test System: AMES SALMONELLA TYPHIMURIUM, Strain/Indicator: TA100, Metabolic Activation: RAT, LIVER, S-9, AROCLOR 1254, Method: STANDARD PLATE): active; positive

CC(I)C1OCC(CO)O1 (stereo not drawn)
mutagenic call (Test System: AMES SALMONELLA TYPHIMURIUM, Strain/Indicator: TA98, Metabolic Activation: HAMSTER, LIVER, S-9, AROCLOR 1254, Method: PREINCUBATION): inactive; negative | mutagenic call [1]: inactive; negative | mutagenic call (Test System: AMES SALMONELLA TYPHIMURIUM, Strain/Indicator: TA98, Metabolic Activation: RAT, LIVER, S-9, AROCLOR 1254, Method: PREINCUBATION): inactive; negative | mutagenic call (Test System: AMES SALMONELLA TYPHIMURIUM, Strain/Indicator: TA100, Metabolic Activation: HAMSTER, LIVER, S-9, AROCLOR 1254, Method: PREINCUBATION): active; positive | mutagenic call [2]: active; positive | mutagenic call (Test System: AMES SALMONELLA TYPHIMURIUM, Strain/Indicator: TA100, Metabolic Activation: RAT, LIVER, S-9, AROCLOR 1254, Method: PREINCUBATION): active; positive | mutagenic call (Test System: AMES SALMONELLA TYPHIMURIUM, Strain/Indicator: TA1535, Metabolic Activation: HAMSTER, LIVER, S-9, AROCLOR 1254, Method: PREINCUBATION): active; positive | mutagenic call (Test System: AMES SALMONELLA TYPHIMURIUM, Strain/Indicator: TA1535, Metabolic Activation: NONE, Method: PREINCUBATION): active; positive | mutagenic call (Test System: AMES SALMONELLA TYPHIMURIUM, Strain/Indicator: TA1535, Metabolic Activation: RAT, LIVER, S-9, AROCLOR 1254, Method: PREINCUBATION): active; positive | mutagenic call (Test System: AMES SALMONELLA TYPHIMURIUM, Strain/Indicator: TA1537, Metabolic Activation: HAMSTER, LIVER, S-9, AROCLOR 1254, Method: PREINCUBATION): inactive; negative | mutagenic call (Test System: AMES SALMONELLA TYPHIMURIUM, Strain/Indicator: TA1537, Metabolic Activation: NONE, Method: PREINCUBATION): inactive; negative | mutagenic call (Test System: AMES SALMONELLA TYPHIMURIUM, Strain/Indicator: TA1537, Metabolic Activation: RAT, LIVER, S-9, AROCLOR 1254, Method: PREINCUBATION): inactive; negative | mutagenic call (Test System: MOUSE LYMPHOMA, Strain/Indicator: L5178Y (TK+/TK-), Metabolic Activation: NONE, Method: SUSPENSION/PLATE): active; positive | mutagenic call (Test System: UDS RAT HEPATOCYTES, Metabolic Activation: NONE, Method: AUTORADIOGRAPHY): inactive; negative

[N-]=[N+]=NC[C@@H]1O[C@H](O)[C@H](O)[C@@H](O)[C@@H]1O
mutagenic call [3]: inactive; negative | mutagenic call [4]: active; positive

COc1nsc2cc(OCC3CO3)ccc12 (stereo not drawn)
mutagenic call [4]: active; positive

CC1(C)O[C@H]1COc1c2ccoc2cc2oc(=O)ccc12
mutagenic call (Test System: AMES SALMONELLA TYPHIMURIUM, Strain/Indicator: TA92, Metabolic Activation: NONE, Method: SPOT TEST): inactive; negative | mutagenic call (Test System: AMES SALMONELLA TYPHIMURIUM, Strain/Indicator: TA92, Metabolic Activation: RAT, LIVER, S-9, AROCLOR 1254, Method: SPOT TEST): inactive; negative | mutagenic call (Test System: AMES SALMONELLA TYPHIMURIUM, Strain/Indicator: TA94, Metabolic Activation: NONE, Method: SPOT TEST): inactive; negative | mutagenic call (Test System: AMES SALMONELLA TYPHIMURIUM, Strain/Indicator: TA94, Metabolic Activation: RAT, LIVER, S-9, AROCLOR 1254, Method: SPOT TEST): inactive; negative | mutagenic call (Test System: AMES SALMONELLA TYPHIMURIUM, Strain/Indicator: TA97, Metabolic Activation: NONE, Method: SPOT TEST): inactive; negative | mutagenic call (Test System: AMES SALMONELLA TYPHIMURIUM, Strain/Indicator: TA97, Metabolic Activation: RAT, LIVER, S-9, AROCLOR 1254, Method: SPOT TEST): inactive; negative | mutagenic call (Test System: AMES SALMONELLA TYPHIMURIUM, Strain/Indicator: TA98, Metabolic Activation: NONE, Method: SPOT TEST): inactive; negative | mutagenic call (Test System: AMES SALMONELLA TYPHIMURIUM, Strain/Indicator: TA98, Metabolic Activation: RAT, LIVER, S-9, AROCLOR 1254, Method: SPOT TEST): inactive; negative | mutagenic call (Test System: AMES SALMONELLA TYPHIMURIUM, Strain/Indicator: TA100, Metabolic Activation: NONE, Method: SPOT TEST): inactive; negative | mutagenic call (Test System: AMES SALMONELLA TYPHIMURIUM, Strain/Indicator: TA100, Metabolic Activation: RAT, LIVER, S-9, AROCLOR 1254, Method: SPOT TEST): inactive; negative | mutagenic call (Test System: AMES SALMONELLA TYPHIMURIUM, Strain/Indicator: TA102, Metabolic Activation: NONE, Method: SPOT TEST): inactive; negative | mutagenic call (Test System: AMES SALMONELLA TYPHIMURIUM, Strain/Indicator: TA102, Metabolic Activation: RAT, LIVER, S-9, AROCLOR 1254, Method: SPOT TEST): inactive; negative
